Experimental data as given in patent US20040170601A1, “Method of improving the growth performance of an animal” (priority 2001, published 2004).
Entries after “also recorded” stand apart in the source; their conditions may differ.

What was measured:
[1] = tested on: Brachyspira (Serpulina) hyodysenteriae; assay: Example 13: swine dysentery challenge, IL-4 prophylactic; assay type: in vivo, pigs
From the text: (§1) The aim of this example was to determine whether IL-4 could improve the health of pigs infected with an enteric inflammatory pathogen causing swine dysentery, Brachyspira (Serpulina) hyodysenteriae. A further aim was to determine whether IL-4 could improve the growth rate of pigs under conditions of challenge with swine dysentery.
(§2) Male pigs with a mean starting weight of 6.5 kg, were allocated to treatment groups consisting of eight pigs (Table 10). Pigs were housed in group pens, with each pen containing a replicate from each of the treatment groups. One group of 8 pigs was housed in a separate room and left uninfected to act as untreated controls. Pigs were provided with pelleted feed and water ad libitum.
(§3) Prior to swine dysentery challenge, pigs were treated with recombinant IL-4 or saline, as described in Table 10. Cytokines and the antibiotic, Lincocin, were delivered by intramuscular injection at intervals outlined in Table 11. Pigs were infected with Brachyspira hyodysenteriae at day 0, day 1 and day 2, given as an oral bolus of 120ml of spirochaete culture in log phase of growth, containing approximately […] cells.
(§4) Faecal swabs and blood samples were taken from each pig at intervals described in Table 11. Faecal swabs were cultured for the presence of spirochaetes. Blood samples were assayed for immunological parameters as described in example 1 above. Pigs were weighed at weekly intervals throughout the experiment, which was terminated by euthanasia on days 19 and 20 after the initial challenge. At post mortem swabs from areas of the hindgut were cultured for the presence of spirochaetes, and the gross pathological condition of the gastro-intestinal tissue noted.

[2] = tested on: Brachyspira (Serpulina) hyodysenteriae; assay: Example 7: swine dysentery challenge, IL-5 prophylactic; assay type: in vivo, pigs
From the text: as §1, with “One” for “The”, “IL-5” for “IL-4”
as §2, with “6).” for “10).”
as §3, with “IL-5” for “IL-4”, “6.” for “10.”, “Lincomycin,” for “Lincocin,”, “7.” for “11.”, “120 ml” for “120ml”
as §4, with “7.” for “11.”

[3] = cited from earlier work
[4] = tested on: TNFα; assay: Example 12: TNFα in serum after App challenge (bioassay, L929 target cells); assay type: in vivo, pigs; settings: day 13 after challenge
Procedure: (§5) Due to the intermittent availability of Actinobacillus pleuropneumoniae (App), the App challenge was performed separately on the 2 rooms, resulting in different time schedules for each room, as outlined in Table 9. Prior to each challenge, pigs were treated with recombinant cytokines, flunix or plasmids as described above; the timing of treatments with respect to challenge is described in Table 9. Pigs were anaesthetised and infected intratracheally with 7.5×10^5 […] on day 0.
[…] Blood was assayed for immunological parameters as previously described.
(§6) Briefly, assays were performed on blood samples using standard techniques, including: white blood cell counts performed using an automated cell counter; differential cell counts performed manually on stained blood smears; lymphocyte subset enumeration via flow cytometry; neutrophil function determined by flow cytometry; lymphocyte proliferation determined using a thymidine incorporation assay in response to mitogens; total IgG and IgA levels were identified using indirect sandwich ELISA; levels of mRNA for pro-inflammatory cytokines was detected by RT-PCR. TNF levels were additionally measured in serum by bioassay using L929 target cells. Pigs were weighed weekly from delivery of plasmids and for 2 weeks after challenge.

[5] = tested on: Actinobacillus pleuropneumoniae; assay: Example 12: Actinobacillus pleuropneumoniae (App) challenge: growth, clinical signs, lung pathology; assay type: in vivo, pigs
From the text: The following experiment was designed to determine whether IL-4 could improve the growth of immunologically challenged pigs compared to saline treated controls and positive controls treated with the non-steroidal anti-inflammatory drug (NSAID) Flunix. It was also devised to determine whether IL-4 could be delivered via plasmids.
Male pigs, with a mean starting weight of 52 kg, were allocated to 5 treatment groups (Table 8). Pigs were housed in group pens, with each pen containing a replicate from each of the treatment groups. Pigs were provided with pelleted feed and water ad libitum.
Recombinant IL-4 and saline were administered as 2 ml doses, given subcutaneously behind the ear. Plasmids were administered in 1 ml doses, given intramuscularly in the hind-leg. Flunix was administered as a 2 ml dose according to the manufacturer's instructions, and delivered intramuscularly in the neck. The timetable of administration is outlined in Table 9 below.
as §5, §6
IL-4 delivered as a recombinant caused a reduction of 36% in the presence of clinical symptoms compared to pigs treated with saline, while IL-4 delivered in plasmid form produced a reduction of 62% compared to saline-treated controls (45% reduction compared to plasmid-treated controls).
At the conclusion of the trial, pigs were euthanased and the lungs removed for post-mortem examination. Lungs were scored for pleurisy from 0-5 (FIG. 79) and the degree of pleuropneumonia was determined by weighing affected lung and expressed as a percentage of total lung weight (FIG. 80).

[6] = Example 8: growth performance of pigs administered IL-3 in a commercial piggery; assay type: in vivo
Procedure: This trial evaluated the capacity of IL-3 to improve growth performance and immunity of pigs by comparing the growth rate and health of weaner pigs (28 day old weaners is Day 0 of the trial and the weaner period continued for 42 days) through to the finisher stage (Days 93 to 113) and slaughter (133 days after commencing the trial), which were administered with the recombinant porcine cytokine, IL-3, and saline was used as a control, with and without standard weaner medicated water and feed in a commercial piggery environment.
40 pigs per treatment were mixed in groups, with 4 replicates containing standard medicated water and feed and 4 replicates without medicated feed or water.
Overall weights for each group at the start of the experiment were equivalent. All pigs at the start of the trial (Day 0) were 28 day old male weaners.
IL-3 was provided in saline to inject 1 ml/pig.
Weights were measured at start, throughout the experiment and at the end of experiment. The trial continued for 133 days after the commencement ie. final weights were determined and animals slaughtered 133 days after the start of the weaning period. Weaning Days 0-42, Grower period Days 42-93, Finisher period Days 93-133. Treatments were administered during the weaner period only.
Blood and sera samples collected at start (before treatments) and end of the weaner period. Blood and sera were taken prior to injecting samples.
Recombinant porcine IL-3 was expressed in E. coli and purified using a polyHis tag system as described in Example 4. IL-3 was tested for biological activity in a bioassay prior to the start of the experiment.

[7] = tested on: eosinophils; assay: Example 10: porcine IL-3 on cell populations over a longer duration; assay type: in vivo, pigs; settings: 100 μg IL-3 twice weekly for 2 weeks, followed to day 57
Procedure: This trial compared the effects of recombinant porcine IL-3 protein on eosinophil numbers in the blood of pigs over 8 weeks.
(§7) The experiment was conducted using medicated feed (Barastoc EziWean 150 then Bunge Grolean) ad libitum in an experimental environment (PC2 containment facilities).
Injections were administered intramuscularly in the hind leg. Pigs were 5 weeks of age at commencement of trial. Blood samples were taken for haematology on days 0 (prior to injection), 1, 2, 3, 4, 7, 8, 10, 11, 15, 22, 29, and 57. Full haematology analysis was performed, using the Abbott Cell-Dyn 3700. Examination of selected smears was done for confirmation.

[8] = tested on: cell populations in the blood; assay: Example 9: porcine IL-3 on blood cell populations; assay type: in vivo, pigs
Procedure: This trial examined the effect of administering recombinant porcine IL-3 protein on cell populations in the blood of pigs.
as §7
Injections were administered intramuscularly in the hind leg. Pigs were 9 weeks of age at commencement of trial.
Blood samples were taken for haematology on days 0, 1, 2, 3, 4, 7, 9, 11, 15 and 17. Full haematology analysis was performed, using the Abbott Cell-Dyn 3700 and examination of selected smears were done for confirmation.

[9] = tested on: eosinophils; assay: Example 11: IL-5 and IL-3 on eosinophil production; assay type: in vivo, pigs; settings: single cytokine 100 μg IM days 0, 3, 7, 10
From the text: The aim of this example was to determine if the effects of IL-3 and IL-5 act synergistically to increase eosinophil levels and antibody production.
As IL-3 stimulates the proliferation of pre-active B cells prior to the effects of IL-5, it was believed that administration of both IL-3 and IL-5 would have a greater impact on eosinophil production than the administration of either cytokine alone. An experiment was undertaken using pigs raised under clean PC2 conditions with raised floors. There were 5 treatments with 6 pigs per treatment. Pigs were 5-6 weeks of age. The animals were injected intramuscularly on days 0, 3, 7 and 10 of the experiment with either recombinant cytokines or saline. The treatments include IL-5 and IL-3 alone and given either together at the same time at different sites or to the same animal but with IL-3 being administered one week before IL-5. The treatments were as follows:
Group 3—100 μg IL-3+100 μg IL-5 (separate sites)
The pigs were bled 4 times per week for the first 2 weeks and once per week for the following 2 weeks and haematology measured using a CellDyn machine. Sera were collected also each week and tested for antibody levels.

CCC[C@@H]1C[C@@H](C(=O)N[C@@H]([C@H]2O[C@H](SC)[C@H](O)[C@@H](O)[C@H]2O)[C@@H](C)O)N(C)C1 [Lincocin, Lincomycin, reference compound]
spirochaete shedding in faeces (faecal culture) ([1]; after challenge): no signs of faecal spirochaete shedding by day 14 | gross pathology associated with dysentery ([1]; anterior colon, post mortem): reduced the incidence of pathological symptoms in anterior and posterior colon | total weight gained over the challenge period ([1]; day 7 prior to challenge to slaughter at days 19 and 20): 6.9 kg | mean weight at the end of the trial ([1]; days 19 and 20 after infection): 12.2 kg | incidence of clinical signs in faeces (of 8 pigs) ([1]; post mortem): one | gross pathology associated with dysentery ([1]; posterior colon, post mortem): reduced the incidence of pathological symptoms in anterior and posterior colon | spirochaete shedding in faeces (faecal culture) ([2]; after challenge): no signs of faecal spirochaete shedding by day 14 | reduction in the number of spirochaetes compared to saline treated pigs ([2]; anterior colon, post mortem): 89% | reduction in the number of spirochaetes compared to saline treated pigs ([2]; caecum, post mortem): 93% | reduction in the number of spirochaetes compared to saline treated pigs ([2]; faecal, post mortem): 100% | incidence of clinical signs in faeces (of 8 pigs) ([2]; post mortem): one | reduction in the number of spirochaetes compared to saline treated pigs ([2]; posterior colon, post mortem): 88%

CC(=O)OC/C=C(C)/C=C/C=C(C)/C=C/C1=C(C)CCCC1(C)C [Retinyl acetate]
IL-5 level and IL-4- and IL-5-containing cells in small intestinal mucosa ([3]; mice fed low-protein diet, 1 mg): significantly restored the IL-5 level and the number of IL-4- and IL-5-containing cells | anti-CT IgA level in intestinal mucosa ([3]; mouse, in vivo): prevented the decline of anti-CT IgA level in the protein-deficient mice

CNC[C@H](O)[C@@H](O)[C@H](O)[C@H](O)CO.Cc1c(Nc2ncccc2C(=O)O)cccc1C(F)(F)F [flunix, reference compound]
TNFα production (serum) [4]: failed to inhibit the production of TNFα | growth during the (first) week of App challenge ([5]; pig, in vivo): weight loss | growth in the second week of challenge ([5]; pig, in vivo): poorest growth of all groups in the second week of challenge | pleurisy at necropsy (score 0-5) ([5]; pig, in vivo): less pleurisy than the saline controls | weight gain over the 2 week period following challenge with App ([5]; pig, in vivo): lowest growth over the 2 week challenge period | weight gain over the 2 week period following challenge with App ([5]; pig, in vivo, listed as Flunix): poorest performing treatment in terms of growth | percentage of lung affected by App lesions ([5]; vs saline-treated controls): greatly reduced

interleukin 3 [IL-3]
average warm carcass weight at slaughter above respective saline control ([6]; medicated): approximately 4 kg/pig | average weights during the trial ([6]; medicated): consistently showed higher average weights than all other groups | final average weight higher than saline medicated control ([6]; medicated): over 3.5 kg | increase in total weight of all pigs compared to saline medicated group ([6]; medicated): approximately 10% | individual weight range ([6]; medicated): more consistent weight range than other groups | rate of gain during the weaner period ([6]; medicated and un-medicated): increased the rate of gain over the medicated and un-medicated saline controls | FCR (food conversion ratio) ([6]; medicated, finisher stage): 2.52 | % dressing ([6]; un-medicated): substantially higher % dressing than the respective un-medicated saline control | average warm carcass weight at slaughter above respective saline control ([6]; un-medicated): ~2 kg/pig | absolute numbers of eosinophils in peripheral blood [7]: statistically significant increase in eosinophils | absolute eosinophils in blood ([8]; 100 μg IL-3 daily for 5 days): increase in eosinophils | absolute eosinophils in blood ([8]; 500 μg IL-3 single dose on day 0): smaller increases | basophil numbers ([8]; pig, in vivo): increase in basophil numbers | eosinophil index (area under the curves) ([8]; pig, in vivo): although there was a biological trend it was not statistically significant | eosinophils as a percent of white blood cells [9]: did not significantly increase the percentage of eosinophils; also recorded: minor increases in comparison
